In paper PMC4594923, “Food Polyphenols Fail to Cause a Biologically Relevant Reduction of COX-2 Activity” (PLoS ONE, 2015):
“Also recorded” adds a separate entry of the source. Marks after values point to notes of the source that are not given here.

Columns and labels:
[1] = target: T1, COX–2 (Homo sapiens, UniProt P35354); assay: cell-free COX–2 enzyme assay (PGE2 formation, LC-MS); format: biochemical
T1 sequence (P35354 18-604): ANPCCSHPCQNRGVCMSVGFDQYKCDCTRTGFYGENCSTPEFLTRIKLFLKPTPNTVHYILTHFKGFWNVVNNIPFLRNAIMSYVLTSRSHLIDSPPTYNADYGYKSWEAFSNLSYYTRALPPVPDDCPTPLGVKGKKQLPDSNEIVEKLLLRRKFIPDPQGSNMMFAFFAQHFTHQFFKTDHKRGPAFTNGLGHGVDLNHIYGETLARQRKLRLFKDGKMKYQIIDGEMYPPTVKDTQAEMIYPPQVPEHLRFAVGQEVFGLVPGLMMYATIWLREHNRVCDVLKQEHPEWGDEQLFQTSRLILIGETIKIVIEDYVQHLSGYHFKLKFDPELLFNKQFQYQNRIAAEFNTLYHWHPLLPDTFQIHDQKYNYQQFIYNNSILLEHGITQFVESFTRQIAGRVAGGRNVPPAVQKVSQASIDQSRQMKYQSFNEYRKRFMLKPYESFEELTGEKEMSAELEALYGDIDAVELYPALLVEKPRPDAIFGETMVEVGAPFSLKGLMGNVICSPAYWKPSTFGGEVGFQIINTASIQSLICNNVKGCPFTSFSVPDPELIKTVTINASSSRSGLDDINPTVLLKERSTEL
Protocol: (§1) The in vitro assays were performed as described [6, 16, 18] and COX metabolites were quantified by LC-MS [18].
(§2) Primary human monocytes were freshly isolated from human blood. Blood was collected from healthy human subjects after written informed consent was obtained. […] After 24 h, the supernatant was sampled for LC-MS and cells were collected for the COX–2 expression analysis by Western Blotting.
(§3) GraphPad Prism 5.0 (GraphPad Software, San Diego, USA) was used for data analysis, the fitting of dose response curves and calculation of the IC50 values. Statistical differences were determined by Dunnetts test (LPS vs. other groups).

[2] = target: T1, COX–2; assay: PGE2 formation in LPS stimulated primary human monocytes (24 h, LC-MS); format: cell-based; conditions: up to 1 μM
Protocol: as §1, §2, §3

[3] = target: T1, COX–2; assay: PGE2 formation in HCA–7 cells (24 h, LC-MS); format: cell-based
Protocol: as §1
HCA–7 cells were incubated with sub-cytotoxic concentrations of the polyphenols dissolved in Tris buffered DMEM medium. Cytotoxicity of the polyphenols was evaluated by the lactate dehydrogenase leakage test (Cyto-Tox-ONE, Promega Mannheim, Germany). After 24 h the supernatant was collected for LC-MS analysis and the cells were harvested to analyze the COX–2 expression by Western Blotting.
After 24 h, the supernatant was sampled for LC-MS and cells were collected for the COX–2 expression analysis by Western Blotting.
as §3

[4] = system: arachidonic acid (AA) cascade; assay: kidney tissue oxylipin/PG levels in LPS induced sepsis in mice;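 also: male C57BL/6N mice challenged with LPS, kidney taken 24 h later, oxylipins quantified by LC-MS after solid-phase extraction of tissue homogenate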
Description: Twelve week old male C57BL/6N mice (Charles River, Sulzfeld, Germany) were used for all experiments. C57BL/6 male mice (H2^b, 11–13 weeks of age) were obtained from Charles River (Sulzfeld, Germany). Animals were cared for in accordance with the institution’s guidelines for experimental animals and with the guidelines of the American Physiological Society. […] Mice were monitored closely and if they appeared compromised (i.e. inactivity, no intake of food or water) after compound or LPS injection the experiment was terminated.
Oxylipin levels were analyzed in plasma and tissues by LC-MS following SPE extraction of 200 μl plasma or tissue homogenate (50 mg) on Chromabond C18 ec cartridges (Machery-Nagel, Düren, Germany) [19].
as §3

[5] = target: T2, ovine recombinant COX–1 (Ovis aries, UniProt P05979); assay: cell-free COX–1 enzyme assay (PGE2 formation, LC-MS); format: biochemical; design: purchased Cayman Chemicals/ Biomol, Hamburg, Germany
T2 sequence (P05979 25-600): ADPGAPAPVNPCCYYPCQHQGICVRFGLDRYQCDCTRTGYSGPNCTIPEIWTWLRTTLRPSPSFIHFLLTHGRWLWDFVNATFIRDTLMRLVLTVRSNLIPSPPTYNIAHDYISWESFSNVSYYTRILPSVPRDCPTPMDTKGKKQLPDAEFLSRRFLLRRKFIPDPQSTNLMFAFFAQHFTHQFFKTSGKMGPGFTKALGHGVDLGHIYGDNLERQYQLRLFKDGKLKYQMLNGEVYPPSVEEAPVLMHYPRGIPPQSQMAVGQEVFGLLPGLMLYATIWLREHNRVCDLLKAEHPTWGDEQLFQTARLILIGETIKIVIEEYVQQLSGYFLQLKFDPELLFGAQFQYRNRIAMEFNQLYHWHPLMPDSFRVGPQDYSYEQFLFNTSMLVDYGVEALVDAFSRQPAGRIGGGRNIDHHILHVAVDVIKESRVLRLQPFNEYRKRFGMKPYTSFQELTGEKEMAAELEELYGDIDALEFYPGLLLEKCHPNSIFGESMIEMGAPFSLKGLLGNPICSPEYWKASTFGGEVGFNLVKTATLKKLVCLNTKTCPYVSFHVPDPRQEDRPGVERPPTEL
Protocol: as §1, §2, §3

[6] = kidney tissue 24 h after LPS treatment, LPS +, mean
[7] = kidney tissue 24 h after LPS treatment, LPS +, mean, < = below LOQ
[8] = mice, compound i. p. 100 mg/kg bw 2 h before LPS, 24 h after LPS, vs. LPS group

In the case of Oc1ccc(/C=C/c2cc(O)cc3c2[C@@H](c2cc(O)cc(O)c2)[C@H](c2ccc(O)cc2)O3)cc1 [ε-Viniferin, ε-viniferin], the “effect on COX–2 dependent PGE2 formation, cell-free enzyme assay” value [1] is reported as “dose-dependently decreased; also recorded: inhibited”, the IC50 ([1]; calculated based on PGE2, n = 3, read-out: IC50 (95% CI), COX–2 enzyme assay) is reported as 11 µM and the “inhibition, primary monocytes” value [2] is reported as “inhibition < 50% (up to 1 μM)”. The “IC50 (95% CI), HCA-7 cell line” value ([3]; calculated based on PGE2, n = 3, 24 h) was “no effect (up to 1 μM)”, the “changes of PGE2 formation in HCA–7 cells” value ([3]; non-cytotoxic concentrations, 24 h) was “no or only slight” and the “1a,1b-dihomo-PGF2α” value [4, 6] was 3.2^† nM. For the same molecule, the “4,5-DiHDPE” value [4, 6] was 26^‡ nM, the 4-HDHA [4, 6] was 22 nM and the “5(6)-EpETrE” value [4, 6] was 70 nM. For the same molecule, the “5,6-DiHETrE” value [4, 6] was 2.2^‡ nM, the 5-HEPE [4, 6] was 1.1 nM and the 5-HETE [4, 6] was 13 nM. The 5-oxo-ETE [4, 6] was 24 nM, the 6-keto-PGF1α [4, 6] was 108^‡ nM and the “7,8-DiHDPE” value [4, 6] was 1.9 nM. For the same molecule, the 7-HDHA [4, 6] was 2.7 nM, the “8(9)-EpETrE” value [4, 6] was 15 nM and the “8,9-DiHETrE” value [4, 6] was 2.2^* nM. For the same molecule, the 8-HDHA [4, 6] was 18^* nM, the 8-HETE [4, 6] was 4.4 nM and the 8-iPF2a [4, 6] was 2.7^† nM. For the same molecule, the “9(10)-EpODE” value [4, 6] was 9.9 nM, the “9(10)-EpOME” value [4, 6] was 110 nM and the “9(10)-Epoxystearic acid” value [4, 6] was 64 nM. For the same molecule, the “9,10,13-TriHOME” value [4, 6] was 10 nM, the “9,10-DiHODE” value [4, 6] was 2.0 nM and the “9,10-DiHOME” value [4, 6] was 27 nM. The “9,10-Dihydroxystearic acid” value [4, 6] was 87 nM, the “9,12,13-TriHOME” value [4, 6] was 69^‡ nM and the 9-HETE [4, 6] was 3.6 nM. For the same molecule, the 9-HODE [4, 6] was 380^† nM, the 9-HOTrE [4, 6] was 5.8 nM and the 9-oxo-ODE [4, 6] was 73 nM. The “10(11)-EpDPE” value [4, 6] was 27 nM, the “10,11-DiHDPE” value [4, 6] was 2.3 nM and the 10-HDHA [4, 6] was 3.6 nM. For the same molecule, the “11(12)-EpETE” value [4, 6] was 1.4 nM, the “11(12)-EpETrE” value [4, 6] was 35 nM and the “11,12-DiHETrE” value [4, 6] was 1.8^‡ nM. For the same molecule, the 11-HDHA [4, 6] was 5.4 nM, the 11-HETE [4, 6] was 22^† nM and the “12(13)-EpODE” value [4, 6] was 4.3 nM. For the same molecule, the “12(13)-EpOME” value [4, 6] was 80 nM, the “12,13-DiHOME” value [4, 6] was 32^† nM and the 12-HEPE [4, 6] was 5.0 nM. For the same molecule, the 12-HETE [4, 6] was 47 nM, the “13(14)-EpDPE” value [4, 6] was 22 nM and the “13,14-DiHDPE” value [4, 6] was 1.4 nM. For the same molecule, the “13,14-dihydro-15-keto-PGF2α” value [4, 6] was 4.6^‡ nM, the 13-HDHA [4, 6] was 7.7 nM and the 13-HODE [4, 6] was 310^† nM. For the same molecule, the 13-HOTrE [4, 6] was 6.0 nM, the 13-oxo-ODE [4, 6] was 8.3 nM and the “14(15)-EpETE” value [4, 6] was 1.7 nM. For the same molecule, the “14(15)-EpETrE” value [4, 6] was 29 nM, the “14,15-DiHETE” value [4, 6] was 0.38^‡ nM and the “14,15-DiHETrE” value [4, 6] was 3.4^‡ nM. The 14-HDHA [4, 6] was 20 nM, the “15(16)-EpODE” value [4, 6] was 22 nM and the “15(S)-HETrE” value [4, 6] was 8.0^‡ nM. The “15,16-DiHODE” value [4, 6] was 22 nM, the 15-HETE [4, 6] was 30^* nM and the 15-oxo-ETE [4, 6] was 9.3 nM. The “16(17)-EpDPE” value [4, 6] was 21 nM, the “16,17-DiHDPE” value [4, 6] was 2.7^‡ nM and the 16-HDHA [4, 6] was 4.9^* nM. The “17(18)-EpETE” value [4, 6] was 2.4 nM, the “17,18-DiHETE” value [4, 6] was 1.8^‡ nM and the 17-HDHA [4, 6] was 15 nM. For the same molecule, the 18-HEPE [4, 6] was 1.5 nM, the “19(20)-EpDPE” value [4, 6] was 36 nM and the “19,20-DiHDPE” value [4, 6] was 31^‡ nM. For the same molecule, the 20-HDHA [4, 6] was 17 nM, the 20-HEPE [4, 6] was 11 nM and the EKODE [4, 6] was 92^‡ nM. The PGD2 [4, 6] was 19^† nM, the PGE1 [4, 6] was 8.3 nM and the PGE2 [4, 6] was 110 nM. For the same molecule, the PGF1α [4, 6] was 7.7^‡ nM, the PGF2α [4, 6] was 63^‡ nM and the TXB2 [4, 6] was 4.9^‡ nM. For the same molecule, the “5,6-DiHETE” value [4, 7] was < 0.25 nM, the 5-iPF2α [4, 7] was 1.5^‡ nM and the “8(9)-EpETE” value [4, 7] was 1.2 nM. For the same molecule, the “12,13-DiHODE” value [4, 7] was < 2.0 nM, the “13,14-dihydro-15-keto-PGE1” value [4, 7] was 0.49 nM and the 20-HETE [4, 7] was 3.6^* nM. For the same molecule, the PGD1 [4, 7] was 0.84^† nM, the PGF2α ([4]; kidney tissue 24 h after LPS treatment, LPS +, mean, second listing of PGF2α (r9)) was 63 nM and the “kidney 6-keto-PGF1α level” value [4, 8] was “elevated”. The “kidney 8-iPGF2α level” value [4, 8] was “elevated”, the “kidney 13,14-dihydro-15-keto-PGE1 level” value [4, 8] was “elevated” and the “effect on COX–1 dependent PGE2 formation, cell-free enzyme assay” value [5] was “dose-dependently decreased; also recorded: inhibited”. The IC50 ([5]; calculated based on PGE2, n = 3, read-out: IC50 (95% CI), COX–1 enzyme assay) was 1.6 µM.
